Common to all, as to experiment: Glasshouse assay for herbicidal activity (pre- and post-emergence), percentage phytotoxicity
Holding throughout (assay type): in vivo

Test [1] deals with Alopecurus myosuroides (ALOMY). Conditions: Alopecurus myosuroides. An outline of the steps:
(§1)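 Visually rated damage, 0–100%. PRE spray 1 d after sowing, scored 20 DAA; POST spray ~12 d, scored 15 DAA. Glasshouse at 65% humidity, 16 h day.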

In a further test the test system is Avena fatua (AVEFA). Particulars: Avena fatua. An outline of the steps:
as §1

Test [2] relates to Echinochloa crus-galli (ECHCG). Conditions: Echinochloa crus-galli. An outline of the steps:
as §1

The test system of the next test is Lolium perenne (LOLPE). Particulars: Lolium perenne. A digest of the protocol: as §1
Setting [3] is: post-emergence, 360 h, POST-emergence, rate 250 g/ha, visual score 15 DAA (100%=total damage, 0%=no damage), read-out: Post-emergence herbicidal activity (percentage phytotoxicity) ALOMY POST.
[4] abbreviates: pre-emergence, 480 h, PRE-emergence, rate 250 g/ha, visual score 20 DAA (100%=total damage, 0%=no damage), read-out: Pre-emergence herbicidal activity (percentage phytotoxicity) ALOMY PRE.
The mark [5] stands for this setting: post-emergence, 360 h, POST-emergence, rate 250 g/ha, visual score 15 DAA (100%=total damage, 0%=no damage), read-out: Post-emergence herbicidal activity (percentage phytotoxicity) AVEFA POST.
The mark [6] stands for this setting: pre-emergence, 480 h, PRE-emergence, rate 250 g/ha, visual score 20 DAA (100%=total damage, 0%=no damage), read-out: Pre-emergence herbicidal activity (percentage phytotoxicity) AVEFA PRE.
Where [7] appears, read: post-emergence, 360 h, POST-emergence, rate 250 g/ha, visual score 15 DAA (100%=total damage, 0%=no damage), read-out: Post-emergence herbicidal activity (percentage phytotoxicity) ECHCG POST.
Where [8] appears, read: pre-emergence, 480 h, PRE-emergence, rate 250 g/ha, visual score 20 DAA (100%=total damage, 0%=no damage), read-out: Pre-emergence herbicidal activity (percentage phytotoxicity) ECHCG PRE.
The mark [9] stands for this setting: post-emergence, 360 h, POST-emergence, rate 250 g/ha, visual score 15 DAA (100%=total damage, 0%=no damage), read-out: Post-emergence herbicidal activity (percentage phytotoxicity) LOLPE POST.
The mark [10] stands for this setting: pre-emergence, 480 h, PRE-emergence, rate 250 g/ha, visual score 20 DAA (100%=total damage, 0%=no damage), read-out: Pre-emergence herbicidal activity (percentage phytotoxicity) LOLPE PRE.
The mark [11] stands for this setting: post-emergence, 360 h, 250 g/ha, post-emergence, 15 DAA, visual assessment (100%=total damage, 0%=no damage), read-out: Post-emergence herbicidal activity (percentage phytotoxicity) ALOMY POST.
Where [12] appears, read: pre-emergence, 480 h, 250 g/ha, pre-emergence, 20 DAA, visual assessment (100%=total damage, 0%=no damage), read-out: Pre-emergence herbicidal activity (percentage phytotoxicity) ALOMY PRE.
Where [13] appears, read: post-emergence, 360 h, 250 g/ha, post-emergence, 15 DAA, visual assessment (100%=total damage, 0%=no damage), read-out: Post-emergence herbicidal activity (percentage phytotoxicity) AVEFA POST.
[14] abbreviates: pre-emergence, 480 h, 250 g/ha, pre-emergence, 20 DAA, visual assessment (100%=total damage, 0%=no damage), read-out: Pre-emergence herbicidal activity (percentage phytotoxicity) AVEFA PRE.
[15] abbreviates: post-emergence, 360 h, 250 g/ha, post-emergence, 15 DAA, visual assessment (100%=total damage, 0%=no damage), read-out: Post-emergence herbicidal activity (percentage phytotoxicity) ECHCG POST.
Setting [16] is: pre-emergence, 480 h, 250 g/ha, pre-emergence, 20 DAA, visual assessment (100%=total damage, 0%=no damage), read-out: Pre-emergence herbicidal activity (percentage phytotoxicity) ECHCG PRE.
The mark [17] stands for this setting: post-emergence, 360 h, 250 g/ha, post-emergence, 15 DAA, visual assessment (100%=total damage, 0%=no damage), read-out: Post-emergence herbicidal activity (percentage phytotoxicity) LOLPE POST.
Setting [18] is: pre-emergence, 480 h, 250 g/ha, pre-emergence, 20 DAA, visual assessment (100%=total damage, 0%=no damage), read-out: Pre-emergence herbicidal activity (percentage phytotoxicity) LOLPE PRE.

Like-named read-outs stand apart in the source and are kept apart here.

Regarding `COCC(C)(C)NC(=O)CC1CC(=O)C(c2c(C)cc(-c3ncc(F)cc3F)cc2C)C1=O` (centres unmarked) [Compound B329], the pest or weed control at 250 g/ha in test [1] (setting [3]) was 100%; in test [1] (setting [4]) it was 100%; in the test on Avena fatua (AVEFA) (setting [5]), 100%; with Avena fatua (AVEFA) (setting [6]), 80%; in test [2] (setting [7]), 100%; in test [2] (setting [8]), 100%. Also, the pest or weed control at 250 g/ha in the test with Lolium perenne (LOLPE) (setting [9]) and in the test on Lolium perenne (LOLPE) (setting [10]) was 100% throughout.

As to `C#CC(C)(C)NC(=O)CC1CC(=O)C(c2c(C)cc(-c3ccc(Br)cn3)cc2C)C1=O` (centres unmarked) [Compound B297], the pest or weed control at 250 g/ha in test [1] (setting [3]) came to 100%; in test [1] (setting [4]), 90%; with Avena fatua (AVEFA) (setting [5]), 100%; in the test on Avena fatua (AVEFA) (setting [6]), 90%; in test [2] (setting [7]), 100%; in test [2] (setting [8]), 100%. For the same compound, the pest or weed control at 250 g/ha came out at 100% in the test with Lolium perenne (LOLPE) (setting [9]) and 90% in the test on Lolium perenne (LOLPE) (setting [10]).

For `CCSC(=O)OC1=C(c2c(C)cc(-c3ncc(Cl)cn3)cc2C)C(=O)C(CC(=O)NC(C)(C)C)C1` (centres unmarked) [Compound P5], the pest or weed control at 250 g/ha in test [1] (post-emergence, 360 h, post-emergence, 250 g/ha, 15 DAA, visual score (100%=total damage; 0%=no damage), read-out: ALOMY POST herbicidal activity (percentage phytotoxicity)) worked out at 100%; in test [1] (pre-emergence, 480 h, pre-emergence, 250 g/ha, 20 DAA, visual score (100%=total damage; 0%=no damage), read-out: ALOMY PRE herbicidal activity (percentage phytotoxicity)), 100%; in the test on Avena fatua (AVEFA) (post-emergence, 360 h, post-emergence, 250 g/ha, 15 DAA, visual score (100%=total damage; 0%=no damage), read-out: AVEFA POST herbicidal activity (percentage phytotoxicity)) it was 100%; in the test on Avena fatua (AVEFA) (pre-emergence, 480 h, pre-emergence, 250 g/ha, 20 DAA, visual score (100%=total damage; 0%=no damage), read-out: AVEFA PRE herbicidal activity (percentage phytotoxicity)), 90%; in test [2] (post-emergence, 360 h, post-emergence, 250 g/ha, 15 DAA, visual score (100%=total damage; 0%=no damage), read-out: ECHCG POST herbicidal activity (percentage phytotoxicity)), 100%; in test [2] (pre-emergence, 480 h, pre-emergence, 250 g/ha, 20 DAA, visual score (100%=total damage; 0%=no damage), read-out: ECHCG PRE herbicidal activity (percentage phytotoxicity)) it was 100%. Moreover, the pest or weed control at 250 g/ha turned out to be 100% with Lolium perenne (LOLPE) (post-emergence, 360 h, post-emergence, 250 g/ha, 15 DAA, visual score (100%=total damage; 0%=no damage), read-out: LOLPE POST herbicidal activity (percentage phytotoxicity)) and 100% in the test with Lolium perenne (LOLPE) (pre-emergence, 480 h, pre-emergence, 250 g/ha, 20 DAA, visual score (100%=total damage; 0%=no damage), read-out: LOLPE PRE herbicidal activity (percentage phytotoxicity)).

Regarding `CCc1cccc(C)c1C1C(=O)CC(CC(=O)NC(C)(C)C)C1=O` (centres unmarked) [Compound B149], the pest or weed control at 250 g/ha in test [1] (setting [11]) was found to be 90%; in test [1] (setting [12]), 90%; with Avena fatua (AVEFA) (setting [13]) it was 90%; in the test on Avena fatua (AVEFA) (setting [14]), 80%; in test [2] (setting [15]) it was 90%; in test [2] (setting [16]), 100%. Besides, the pest or weed control at 250 g/ha came to 80% in the test with Lolium perenne (LOLPE) (setting [17]) and 90% in the test on Lolium perenne (LOLPE) (setting [18]).

`CCc1cccc(C)c1C1C(=O)CC(CC(=O)N2CCOCC2)C1=O` (centres unmarked) [Compound B148]: the pest or weed control at 250 g/ha in test [1] (setting [11]) was found to be 90%; in test [1] (setting [12]), 70%; in the test with Avena fatua (AVEFA) (setting [13]), 100%; in the test on Avena fatua (AVEFA) (setting [14]) it was 70%; in test [2] (setting [15]), 100%; in test [2] (setting [16]), 100%. Further, the values for the pest or weed control at 250 g/ha in the test with Lolium perenne (LOLPE) (setting [17]) and in the test on Lolium perenne (LOLPE) (setting [18]) were 90% and 80%, respectively.

For the compound `C#CCN(CC#C)C(=O)CC1CC(=O)C(c2c(C)cc(-c3ncc(F)cn3)cc2C)C1=O` (centres unmarked) [Compound B110], the pest or weed control at 250 g/ha worked out at 100% in test [1] (setting [11]); 90% in test [1] (setting [12]); 100% in the test with Avena fatua (AVEFA) (setting [13]); 80% in the test on Avena fatua (AVEFA) (setting [14]); 100% in test [2] (setting [15]); 100% in test [2] (setting [16]). Besides, the pest or weed control at 250 g/ha amounted to 90% with Lolium perenne (LOLPE) (setting [17]) and 80% in the test with Lolium perenne (LOLPE) (setting [18]).

For the compound `Cc1cc(-c2ncc(F)cc2F)cc(C)c1C1C(=O)CC(CC(=O)NCc2ccc(C#N)cc2)C1=O` (centres unmarked) [Compound B199], the pest or weed control at 250 g/ha in test [1] (setting [3]) worked out at 100%; in test [1] (setting [4]) it was 80%; with Avena fatua (AVEFA) (setting [5]), 100%; with Avena fatua (AVEFA) (setting [6]), 60%; in test [2] (setting [7]), 100%; in test [2] (setting [8]), 50%. For the same compound, the pest or weed control at 250 g/ha with Lolium perenne (LOLPE) (setting [9]) came to 90%; in the test with Lolium perenne (LOLPE) (setting [10]), 70%.

Source of the values: US10206394B2, “Herbicidal compounds” (Syngenta Participations AG, priority 2014, dated 2019).
